In data set [1] the test system is THP-1 cells. Kind of data set: Cell viability by MTT assay in THP-1 cells. Particulars: purchased compound. It counts as cell-based, human. As to the method:
Two types of tetrazolium were used for viability assays. […] After 18 h of incubation, 0.5 mg/ml 3[4,5-dimethylthiazol-2-yl]-2,5-dipheyl tetrazolium bromide (MTT; Thermo Fisher Scientific) in assay media was added to each well at a final concentration of (0.5 mg/ml) and further incubated for 4-6 h. The absorbances at 570 and 650 nm were measured by a Tecan Infinite M200 plate reader, For RA FLS, the cells were dispersed into 96-well flat bottom plates (104/200 μL/well) and incubated overnight. The next day, RA FLS were treated with 5 μM of each compound for 18 h of incubation. Ten μl of WST-8 [2-(2-methoxy-4-nitrophenyl)-3-(4-nitrophenyl)-5-(2,4-disulfophewnyl)-2H-tetrazolium, monosodium salt] solution was added to each well and the cells were further incubated for 2-4 h. The absorbance was measured at 450 nm with Bio-Rad iMark plate reader (Bio-Rad Laboratories Inc., Hercules, CA, Unites States).
For orientation: Tetrazolium dyes change colour on reduction, which living cells bring about.

Data set [2] deals with THP-1 cells. Kind of data set: TNF stimulated CXCL8 release by THP-1 cells. It counts as cell-based, human. Particulars: TNF 2 ng/ml, overnight (FIG. 3B). As to the method: THP-1 cells (10^5 cells/200 μL/well) and RA FLS (104/200 μL/well) were plated in 96 well plates and pre-treated with compound or vehicle for 1 h and then stimulated with either LPS (10 ng/ml), 1L-1ß (2 ng/ml) or TNF (2 ng/ml for THP-1 and 1 ng/ml for RA FLS). After 18 h of incubation, supernatants were collected and the levels of cytokines and chemokines in the culture supernatants were measured by ELISA according to the manufacturer's protocols (R&D systems, Minneapolis, MN).
The lead compounds belonging to chemotypes 1, 3, and 5 were tested for potency in suppressing chemokine and cytokine production by THP-1 cells in the presence of different inflammatory stimuli. The production of CXCL8 induced by either LPS (10 ng/ml), IL-1ß (2 ng/ml), or TNF (2 ng/ml) and TNF induced by IL-1ß (2 ng/ml) was assessed using serially diluted compounds. The compounds except 1-2 reduced the level of CXCL8 production stimulated by LPS in a dose dependent manner (FIG. 3A). However, the compounds from chemotype 5 enhanced CXCL8 release by THP-1 cells when stimulated with IL-111, or TNF (FIGS. 3B, C). […] The 1Cs0 for 1-1, 1-2 and 3-1 for IL-1ß stimulated CXCL8 release included 400, 1770, and 2020 nM, respectively, (FIG. 3C).

On to `Cc1ccc(-n2ncc3c(NC4CCCCC4)ncnc32)c(C)c1` [Compound 1-1], for which, in the data set with THP-1 cells [1], the “% Cellular Viability (Purchased)” value turned out to be 98.7%. Besides, inhibition in the data set on THP-1 cells [2] was half-maximal at 900 nM (IC50).

A word on the IC50: it is the concentration needed to halve the response being measured. A low value points to higher potency.
